In patent publication US20240383875A1, “Benzimidazole Pyridine Derivatives” (Hoffmann-La Roche Inc., priority 2022, published 2024):

Experiments:
Type in all cases: biochemical
SIK2 = SIK2 (Homo sapiens, UniProt Q9H0K1); assay: Enzymatic activity assay SIK2, RapidFire mass spectrometry (phosphorylation of CHK-peptide); settings: RapidFire MS, inhibition of SIK2; read-out: SIK2 RF IC50
Summary of the method: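 SIK2 (0.5 nM) in pH 7.0 HEPES buffer with 10 mM Mg acetate phosphorylates CHK-peptide (10 μM solution) with 100 μM ATP solution, 45 min ambient, then formic acid quench.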

SIK3 = SIK3 (Homo sapiens, UniProt Q9Y2K2); assay: Enzymatic activity assay SIK3, RapidFire mass spectrometry (phosphorylation of CHK-peptide); settings: RapidFire MS, inhibition of SIK3; read-out: SIK3 RF IC50
Summary of the method: (§1)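 Compounds (12-point, 3-fold, generally 30 μM to 170 pM) were pre-incubated 30 min at ambient temperature with SIK1 (5 nM), SIK2 (0.5 nM) or SIK3 (1.5 nM) in HEPES pH 7.0/magnesium acetate buffer. CHK-peptide (10 μM solution) and ATP (100 μM solution) were then added for 45 min before formic acid quench.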

SIK1 = SIK1 (Homo sapiens, UniProt P57059); assay: Enzymatic activity assay SIK1, RapidFire mass spectrometry (phosphorylation of CHK-peptide); settings: RapidFire MS, inhibition of SIK1; read-out: SIK1 RF IC50
Summary of the method: as §1

SIK2, sequence (Q9H0K1 whole entry): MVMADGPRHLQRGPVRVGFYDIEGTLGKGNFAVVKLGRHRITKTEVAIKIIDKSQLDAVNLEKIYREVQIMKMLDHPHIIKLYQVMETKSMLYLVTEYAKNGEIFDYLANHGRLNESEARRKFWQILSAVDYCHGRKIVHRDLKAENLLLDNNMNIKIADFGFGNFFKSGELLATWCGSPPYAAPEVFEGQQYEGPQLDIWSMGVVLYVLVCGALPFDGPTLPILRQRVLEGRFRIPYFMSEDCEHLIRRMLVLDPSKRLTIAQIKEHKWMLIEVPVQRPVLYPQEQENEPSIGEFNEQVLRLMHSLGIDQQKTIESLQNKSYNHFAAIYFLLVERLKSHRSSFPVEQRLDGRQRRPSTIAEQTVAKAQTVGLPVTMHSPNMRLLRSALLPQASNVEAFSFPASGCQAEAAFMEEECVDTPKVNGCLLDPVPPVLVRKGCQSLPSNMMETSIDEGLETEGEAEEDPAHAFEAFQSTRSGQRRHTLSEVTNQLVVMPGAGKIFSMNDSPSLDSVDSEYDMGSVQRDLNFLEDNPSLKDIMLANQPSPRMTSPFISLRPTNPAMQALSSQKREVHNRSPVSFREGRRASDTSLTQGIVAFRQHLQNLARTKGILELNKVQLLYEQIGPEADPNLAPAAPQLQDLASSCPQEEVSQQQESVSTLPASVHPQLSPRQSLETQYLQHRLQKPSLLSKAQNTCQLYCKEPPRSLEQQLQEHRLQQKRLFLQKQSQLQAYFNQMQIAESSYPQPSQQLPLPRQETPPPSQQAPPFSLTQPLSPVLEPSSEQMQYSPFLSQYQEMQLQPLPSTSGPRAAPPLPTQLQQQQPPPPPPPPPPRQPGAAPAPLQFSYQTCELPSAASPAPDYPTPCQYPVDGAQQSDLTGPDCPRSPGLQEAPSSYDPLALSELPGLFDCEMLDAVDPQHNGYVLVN
SIK1, sequence (P57059 whole entry): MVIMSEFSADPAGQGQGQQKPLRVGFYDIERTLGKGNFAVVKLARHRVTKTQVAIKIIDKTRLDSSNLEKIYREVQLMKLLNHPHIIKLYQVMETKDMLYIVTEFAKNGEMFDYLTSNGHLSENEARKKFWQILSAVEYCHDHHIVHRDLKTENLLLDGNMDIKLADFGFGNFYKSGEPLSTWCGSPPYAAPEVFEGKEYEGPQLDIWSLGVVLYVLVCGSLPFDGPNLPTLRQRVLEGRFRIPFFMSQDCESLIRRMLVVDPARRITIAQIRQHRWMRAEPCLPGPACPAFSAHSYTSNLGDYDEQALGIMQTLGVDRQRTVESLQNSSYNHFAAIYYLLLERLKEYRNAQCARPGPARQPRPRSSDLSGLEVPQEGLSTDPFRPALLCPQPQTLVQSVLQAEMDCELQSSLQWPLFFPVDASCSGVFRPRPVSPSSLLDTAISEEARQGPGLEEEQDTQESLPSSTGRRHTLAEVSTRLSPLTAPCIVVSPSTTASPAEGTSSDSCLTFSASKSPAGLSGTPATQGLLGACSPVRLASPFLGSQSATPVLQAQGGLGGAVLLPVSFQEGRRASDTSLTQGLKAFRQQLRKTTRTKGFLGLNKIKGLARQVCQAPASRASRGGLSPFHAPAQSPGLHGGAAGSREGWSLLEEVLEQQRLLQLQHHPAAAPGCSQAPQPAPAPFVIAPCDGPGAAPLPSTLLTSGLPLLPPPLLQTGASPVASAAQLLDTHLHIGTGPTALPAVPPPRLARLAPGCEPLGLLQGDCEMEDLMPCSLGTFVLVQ
SIK3, sequence (Q9Y2K2 whole entry): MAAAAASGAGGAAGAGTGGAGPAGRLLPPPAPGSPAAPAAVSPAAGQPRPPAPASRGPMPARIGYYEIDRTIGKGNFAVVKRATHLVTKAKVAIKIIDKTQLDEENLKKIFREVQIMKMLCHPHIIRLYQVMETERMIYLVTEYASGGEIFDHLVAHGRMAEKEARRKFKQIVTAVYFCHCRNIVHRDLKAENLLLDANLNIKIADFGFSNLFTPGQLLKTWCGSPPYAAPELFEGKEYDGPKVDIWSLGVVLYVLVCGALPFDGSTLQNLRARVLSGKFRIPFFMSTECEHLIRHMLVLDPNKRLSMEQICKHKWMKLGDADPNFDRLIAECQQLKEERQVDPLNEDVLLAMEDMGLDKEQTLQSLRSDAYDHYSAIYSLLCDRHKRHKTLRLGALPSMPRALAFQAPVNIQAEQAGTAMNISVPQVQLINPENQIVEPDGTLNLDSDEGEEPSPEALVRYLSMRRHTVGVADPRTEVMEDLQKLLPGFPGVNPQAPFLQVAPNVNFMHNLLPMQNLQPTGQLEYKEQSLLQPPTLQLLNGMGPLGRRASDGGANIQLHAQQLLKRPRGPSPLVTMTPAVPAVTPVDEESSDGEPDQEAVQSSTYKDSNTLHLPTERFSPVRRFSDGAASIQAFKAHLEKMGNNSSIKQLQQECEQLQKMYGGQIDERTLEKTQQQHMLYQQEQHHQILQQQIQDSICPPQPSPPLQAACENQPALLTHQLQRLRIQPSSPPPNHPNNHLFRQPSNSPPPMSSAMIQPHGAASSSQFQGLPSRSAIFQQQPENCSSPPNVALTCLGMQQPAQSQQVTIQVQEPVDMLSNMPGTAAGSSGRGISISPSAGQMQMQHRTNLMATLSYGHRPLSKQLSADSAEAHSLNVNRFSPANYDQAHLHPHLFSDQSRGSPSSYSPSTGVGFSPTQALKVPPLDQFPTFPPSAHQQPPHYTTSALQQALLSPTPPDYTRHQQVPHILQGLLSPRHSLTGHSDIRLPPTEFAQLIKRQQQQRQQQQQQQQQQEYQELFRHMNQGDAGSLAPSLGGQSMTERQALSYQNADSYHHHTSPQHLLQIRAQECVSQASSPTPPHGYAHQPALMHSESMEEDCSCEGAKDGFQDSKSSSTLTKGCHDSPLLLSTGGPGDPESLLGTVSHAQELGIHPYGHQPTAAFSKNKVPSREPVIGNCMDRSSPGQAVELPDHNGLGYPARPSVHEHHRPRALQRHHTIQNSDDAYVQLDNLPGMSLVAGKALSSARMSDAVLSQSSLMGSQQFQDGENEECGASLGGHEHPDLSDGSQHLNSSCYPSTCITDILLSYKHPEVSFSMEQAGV

Row | Compound | IC50 (SIK2) [nM] | IC50 (SIK3) [nM] | IC50 (SIK1) [nM]
1 | Cc1ccc(Nc2cc3c(cc2OCCN2CCOCC2)ncn3-c2ccc(C(C)O)c(-n3nc(C#N)cc3C)n2)cn1 (stereo not drawn) [Example 294, 1-[3-(1-hydroxyethyl)-6-[6-[(6-methyl-3-pyridyl)amino]-5-(2-morpholinoethoxy)benzimidazol-1-yl]-2-pyridyl]-5-methyl-pyrazole-3-carbonitrile] | 0.3 | 3 | 2
2 | Cc1cc(C#N)nn1-c1nc(-n2cnc3ccc(N4CCCC45COC5)cc32)ccc1C(C)O (stereo not drawn) [Example 295, 1-[3-(1-hydroxyethyl)-6-[6-(2-oxa-5-azaspiro[3.4]octan-5-yl)benzimidazol-1-yl]-2-pyridyl]-5-methyl-pyrazole-3-carbonitrile] | 19.6 | 235 | 10
3 | Cc1cc(C#N)nn1-c1nc(-n2cnc3cc(N4CCCC45COC5)ccc32)ccc1C(C)O (stereo not drawn) [Example 296, 1-[3-(1-hydroxyethyl)-6-[5-(2-oxa-5-azaspiro[3.4]octan-5-l)benzimidazol-1-yl]-2-pyridyl]-5-methyl-pyrazole-3-carbonitrile] | 77 | 90 | 137
4 | Cc1ccc(Nc2cc3ncn(-c4ccc(C(C)O)c(-n5nc(C#N)cc5C)n4)c3cc2OCCN2CCOCC2)cn1 (stereo not drawn) [Example 297, 1-[3-(1-hydroxyethyl)-6-[5-[(6-methyl-3-pyridyl)amino]-6-(2-morpholinoethoxy)benzimidazol-1-yl]-2-pyridyl]-5-methyl-pyrazole-3-carbonitrile] | 6.2 | 14.8 | 10
5 | Cc1ccc(Nc2ccc3c(c2)ncn3-c2ccc(C(C)O)c(N3CCC(C(F)F)C3)n2)nn1 (stereo not drawn) [Example 298, 1-[2-[3-(difluoromethyl)pyrrolidin-1-yl]-6-[5-[(6-methylpyridazin-3-yl)amino]benzimidazol-1-yl]-3-pyridyl]ethanol] | 27.4 | 3 | 1510
6 | Cc1ccc(Nc2ccc3c(c2)ncn3-c2ccc(C(C)O)c(N3CCC4(C3)CC4(F)F)n2)nn1 (stereo not drawn) [Example 299, 1-[2-(2,2-difluoro-5-azaspiro[2.4]heptan-5-yl)-6-[5-[(6-methylpyridazin-3-yl)amino]benzimidazol-1-yl]-3-pyridyl]ethanol] | 2.4 | 0.7 | 273
7 | Cc1ccc(Nc2cc3ncn(-c4ccc([C@H](C)O)c(-n5nc(C(F)F)cc5C)n4)c3cc2F)nn1 [Example 301, (1S)-1-[2-[3-(difluoromethyl)-5-methyl-pyrazol-1-yl]-6-[6-fluoro-5-[(6-methylpyridazin-3-yl)amino]benzimidazol-1-yl]-3-pyridyl]ethanol] | 3.5 | 2 | 664
8 | Cc1ccc(Nc2cc3ncn(-c4ccc(C(C)O)c(-c5cn(CC(F)(F)F)nc5C)n4)c3cc2F)nn1 (stereo not drawn) [Example 302, 1-[6-[6-fluoro-5-[(6-methylpyridazin-3-yl)amino]benzimidazol-1-yl]-2-[3-methyl-1-(2,2,2-trifluoroethyl)pyrazol-4-yl]-3-pyridyl]ethanol] | 0.7 | 1.1 | 409
9 | Cc1ccc(Nc2ccc3c(c2)ncn3-c2ccc(C(C)O)c(-n3nc(C(F)F)cc3C#N)n2)nn1 (stereo not drawn) [Example 303, 5-(difluoromethyl)-2-[3-(1-hydroxyethyl)-6-[5-[(6-methylpyridazin-3-yl)amino]benzimidazol-1-yl]-2-pyridyl]pyrazole-3-carbonitrile] | 0.4 | 0.4 | 30
10 | Cc1cc(C#N)nn1-c1nc(-n2cnc3cc(Nc4ccc(C5CCCN5C5COC5)nn4)ccc32)ccc1C(C)O (stereo not drawn) [Example 304, 1-[3-(1-hydroxyethyl)-6-[5-[[6-[1-(oxetan-3-yl)pyrrolidin-2-yl]pyridazin-3-yl]amino]benzimidazol-1-yl]-2-pyridyl]-5-methyl-pyrazole-3-carbonitrile] | 95.4 | 37.2 | 273
11 | Cc1ccc(Nc2ccc3c(c2)ncn3-c2ccc(C(C)O)c(-n3nc(C#N)c4c3C(F)(F)CNC4)n2)nn1 (stereo not drawn) [Example 305, 7,7-difluoro-1-[3-(1-hydroxyethyl)-6-[5-[(6-methylpyridazin-3-yl)amino]benzimidazol-1-yl]-2-pyridyl]-5,6-dihydro-4~{H}-pyrazolo[4,3-c]pyridine-3-carbonitrile] | 1.7 | 2.1 | 155
12 | Cc1ccc(Nc2ccc3c(c2)ncn3-c2ccc(C(C)O)c(-n3nc(C#N)cc3C(F)F)n2)nn1 (stereo not drawn) [Example 306, 5-(difluoromethyl)-1-[3-(1-hydroxyethyl)-6-[5-[(6-methylpyridazin-3-yl)amino]benzimidazol-1-yl]-2-pyridyl]pyrazole-3-carbonitrile] | 1.6 | 0.7 | 208
13 | Cc1cc(C(F)F)nn1-c1nc(-n2cnc3cc(Nc4cccnn4)c(F)cc32)ccc1[C@H](C)O [Example 307, (1S)-1-[2-[3-(difluoromethyl)-5-methyl-pyrazol-1-yl]-6-[6-fluoro-5-(pyridazin-3-ylamino)benzimidazol-1-yl]-3-pyridyl]ethanol] | 7.8 | 2.8 | 679
14 | Cc1ccc(Nc2ccc3c(c2)ncn3-c2ccc(C(C)O)c(-c3nn(CC(F)(F)F)nc3C)n2)nn1 (stereo not drawn) [Example 308, 1-[6-[5-[(6-methylpyridazin-3-yl)amino]benzimidazol-1-yl]-2-[5-methyl-2-(2,2,2-trifluoroethyl)triazol-4-yl]-3-pyridyl]ethanol] | 0.4 | 0.4 | 58
15 | Cc1ccc(Nc2ccc3c(c2)ncn3-c2ccc(C(C)O)c(-n3nc(C#N)c(C)c3C)n2)nn1 (stereo not drawn) [Example 309, 1-[3-(1-hydroxyethyl)-6-[5-[(6-methylpyridazin-3-yl)amino]benzimidazol-1-yl]-2-pyridyl]-4,5-dimethyl-pyrazole-3-carbonitrile] | 0.3 | 0.4 | 27
16 | Cc1cc(C#N)nn1-c1nc(-n2cnc3cc(Nc4nncc5c4OCCN5C)ccc32)ccc1C(C)O (stereo not drawn) [Example 310, 1-[3-(1-hydroxyethyl)-6-[5-[(4-methyl-2,3-dihydropyridazino[4,5-b][1,4]oxazin-8-yl)amino]benzimidazol-1-yl]-2-pyridyl]-5-methyl-pyrazole-3-carbonitrile] | 1.1 | 0.5 | 93
17 | Cc1ccc(Nc2ccc3c(c2)ncn3-c2ccc(C(C)O)c(-c3nnn(CC(F)(F)F)c3C)n2)nn1 (stereo not drawn) [Example 311, 1-[6-[5-[(6-methylpyridazin-3-yl)amino]benzimidazol-1-yl]-2-[5-methyl-1-(2,2,2-trifluoroethyl)triazol-4-yl]-3-pyridyl]ethanol] | 0.3 | 0.3 | 17
18 | Cc1cc(C#N)nn1-c1nc(-n2cnc3cc(N4CCCC4C(=O)N(C)C)ccc32)ccc1C(C)O (stereo not drawn) [Example 312, 1-[1-[6-(3-cyano-5-methyl-pyrazol-1-yl)-5-(1-hydroxyethyl)-2-pyridyl]benzimidazol-5-yl]-N,N-dimethyl-pyrrolidine-2-carboxamide] | 79.6 | 85.6 | 250
19 | Cc1ccc(Nc2ccc3c(c2)ncn3-c2ccc(C(C)O)c(-c3cn(CC(F)F)nc3C)n2)nn1 (stereo not drawn) [Example 313, 1-[2-[1-(2,2-difluoroethyl)-3-methyl-pyrazol-4-yl]-6-[5-[(6-methylpyridazin-3-yl)amino]benzimidazol-1-yl]-3-pyridyl]ethanol] | 1.1 | 1.4 | 138
20 | Cc1ccc(Nc2cc3c(cc2F)ncn3-c2ccc(CO)c(-n3nc(C#N)cc3C)n2)nn1 [Example 314, 1-[6-[5-fluoro-6-[(6-methylpyridazin-3-yl)amino]benzimidazol-1-yl]-3-(hydroxymethyl)-2-pyridyl]-5-methyl-pyrazole-3-carbonitrile] | 52.4 | 65.1 | 70
21 | Cc1ccc(Nc2ccc3c(c2)ncn3-c2ccc(CO)c(-c3cn(CC(F)(F)F)nc3C)n2)nn1 [Example 315, [6-[5-[(6-methylpyridazin-3-yl)amino]benzimidazol-1-yl]-2-[3-methyl-1-(2,2,2-trifluoroethyl)pyrazol-4-yl]-3-pyridyl]methanol] | 7.3 | 2.9 | 1090
22 | Cc1ccc(Nc2ccc3c(c2)ncn3-c2ccc(CO)c(-c3cnn(CC(F)(F)F)c3C)n2)nn1 [Example 316, [6-[5-[(6-methylpyridazin-3-yl)amino]benzimidazol-1-yl]-2-[5-methyl-1-(2,2,2-trifluoroethyl)pyrazol-4-yl]-3-pyridyl]methanol] | 15.1 | 4.6 | 975
23 | Cc1cc(C(F)F)nn1-c1nc(-n2cnc3cc(Nc4cc5c(nn4)CCOC5)ccc32)ccc1CO [Example 317, [2-[3-(difluoromethyl)-5-methyl-pyrazol-1-yl]-6-[5-(7,8-dihydro-5H-pyrano[4,3-c]pyridazin-3-ylamino)benzimidazol-1-yl]-3-pyridyl]methanol] | 7.6 | 2.6 | 961
24 | Cc1cc(C(F)F)nn1-c1nc(-n2cnc3cc(N4C[C@H]5OCCN(C)[C@H]5C4)ccc32)ccc1CO [Example 318, [6-[5-[(4aS,7aR)-4-methyl-2,3,4a,5,7,7a-hexahydropyrrolo[3,4-b][1,4]oxazin-6-yl]benzimidazol-1-yl]-2-[3-(difluoromethyl)-5-methyl-pyrazol-1-yl]-3-pyridyl]methanol] | 50.1 | 65 | 327
